In patent US20080234188A1, “Antimicrobial Peptides” (The Hospital for Sick Children, priority 2001, published 2008):
≈ marks a conversion by molar mass, not a printed value. Where two headings read alike, the source gives them in different places. Where a SMILES comes first, the peptide text is derived from it. Where no end group is shown, it is not given here.

Legend:
[1] = tested on: E. coli DC2; assay: Assay of antibacterial activity (MIC), E. coli DC2; assay type: cell-based, Escherichia coli; details: Table 3; Gram-negative
From the text: (§1) The bacterial strains used were E. coli C498, E. coli C500, Escherichia coli UB1005 and its antibiotic supersusceptible derivative DC2 (22); a clinical isolate of Staphylococcus epidermidis (C621); coryneform bacterial strain Corynebacterium xerosis (C875); and E. coli ATCC 25922, Staphylococcus aureus ATCC 25923, Enterococcus faecalis ATCC 29212, Bacillus subtilis ATCC 6633 and Pseudomonas aeruginosa ATCC 27853, all from American Type Culture Collection.
(§2) Peptide antibacterial activity was assessed by the method of R. Hancock et al. (Wu & Hancock (1999), J. Biol. Chem., v. 274, pp. 29-35). Test strains of bacteria from Mueller Hinton agar (MHA) plates were inoculated into 5 ml Mueller Hinton Broth (MHB) in tubes and grown overnight at 37° C. on a shaker (180 rpm). Serial dilutions of test peptides (at 10 times the required test concentrations) were made in 0.01% acetic acid, 0.2% BSA, in polypropylene or coated glass tubes as follows: the test peptide was (a) dissolved in distilled water at 20 times the required maximum concentration (enough final volume for all tests to be performed on a given day); (b) diluted into an equal volume of 0.02% acetic acid, 0.4% BSA to give 10 times the required maximum concentration; (c) serial doubling dilutions were performed in 0.01% acetic acid, 0.2% BSA to provide serial dilutions of peptides at 10 times the required test concentrations, e.g., 640, 320, 160, . . . 2.5 μg/ml. (No deleterious effects of long-term storage of peptides in these media have been detected). Overnight bacterial cultures were diluted in MHB to give 2−7×10^5 colony forming units/ml. Bacterial suspension (100 μl) was dispensed in each well; controls without bacteria were maintained in parallel. To each well was added 11 μl of 10× test peptide and plates were incubated at 37° C. for 18-24 hours, and checked again at 40-48 hours. Plates were read visually and at 600 nm in a microplate reader (Molecular Devices).
(§3) A further number of the peptides of the invention were tested for antimicrobial activity against a range of Gram-positive and Gram-negative bacteria by the assay described immediately before Example 1.

[2] = Hydrophobicity (hydropathy) from reverse-phase HPLC retention scale; assay type: physicochemical; parameters: key to Average Hydrophobicity of Core Sequence / Mean Core segment Hydrophobicity: arithmetic average of Table 1 hydropathy values of constituent residues; key to Hydropathy: hydropathy scale from HPLC retention times of model peptides (Table 1); details: for Mean residue hydropathy of X-residue peptide / Hydropathy: Table 1; for Hydropathy: of the X-residue, from HPLC retention of KKAAAXAAAAAXAAWAAXAAAKKKK-amide peptides; for Mean Core segment Hydrophobicity: Table 3
From the text: The “hydrophobicity value” of an amino acid residue means the hydrophobicity value of that residue as shown in Table 1 or as calculated by the method described herein.
The “hydrophobicity value” of an amino acid sequence or peptide means the arithmetic average of the individual hydrophobicity values of the constituent amino acid residues of the sequence.
Various hydrophobicity scales for proteins and amino acids have been described in the literature but the inventors have established the hydrophobicity scale of Table 1 based on the retention times on HPLC of a series of hydrophobic model peptides, as described in Liu and Deber (1998), Biopolymers (Peptide Science), v. 47, pp. 41-62).
The hydrophobicity value shown for each amino acid in Table 1 as “hydropathy” may be used as the hydrophobicity value for that amino acid in any peptide whose hydrophobicity value has to be calculated. The “average hydrophobicity” of a peptide containing amino acids shown in Table 1 is calculated by determining the arithmetic average of the Table 1 “hydropathy” values for the constituent amino acids of the sequence.
Peptides in accordance with the invention may also include other amino acids. For an amino acid not included in Table 1, the hydrophobicity value may be determined by the same method as described herein for obtaining the values of Table 1. For example, a peptide such as KKAAAXAAAAAXAAXAAXAAAKKKK-amide (Sequence ID No: 1) may be synthesized, where X is the amino acid whose hydrophobicity value is to be determined, and the retention time of the peptide on HPLC is determined, as described in the Examples. Similar peptides where X is Lys or Phe are also prepared and their HPLC retention times determined. The retention time, Rx, is converted to the hydropathy value H for the selected amino acid using the equation
H=(10×ΔtRx-Lys/ΔtRPhe-Lys)−5.00
where ΔtRx-Lys=retention time difference in minutes between Rx and the retention time of the most hydrophilic peptide tested (X=Lys) and where ΔtRPhe-Lys=retention time difference in minutes between the most hydrophobic peptide tested (X=Phe) and the most hydrophilic (X=Lys).
The retention time of each peptide was determined on a C4 reversed-phase column (4.6×250 mm, 300 A pore size, 10 μ particle size). Equal amounts of each peptide were injected into the column and eluted at a flow rate of 1 mL/min, utilizing a linear AB gradient (2% B/min), where buffer A was 0.1% TFA/ddH2O, and buffer B was 0.1% TFA/acetonitrile. The retention time of each peptide reported here was the average of triplicate measurements.

[3] = tested on: Corynebacterium xerosis (C875); assay type: cell-based
From the text: as §1, §2
(§4) were synthesized. The antibacterial activity of these peptides was determined against both Gram-positive bacteria ([…], Corynebacterium xerosis) and Gram-negative bacteria (various strains of E. coli). The results are shown in Table 2, along with the average hydrophobicity of each peptide, calculated as described herein.
as §3

[4] = tested on: Staphylococcus epidermidis (C621); assay type: cell-based
From the text: as §1, §2, §4, §3

[5] = tested on: E. coli UB1005; assay type: cell-based, Escherichia coli
From the text: as §1, §2, §3

Row | Compound | MIC E. coli DC2 [1] | Mean residue hydropathy of X-residue peptide [2] | Hydropathy [2] | Mean Core segment Hydrophobicity [2] | MIC C. xerosis C875 [3] | MIC S. epidermidis C621 ([4]; C621) | MIC E. coli UB1005 ([5]; UB1005) | Antimicrobial activity, spectrum (in words) ([3]; Example 5, active on C. xerosis, not on the other bacteria tested) | MIC C. xerosis C875 ([3]; Table 3, Gram-positive) | MIC S. epidermidis C621 ([4]; Table 3, Gram-positive) | MIC E. coli UB1005 ([5]; Table 3, Gram-negative)
1 | C[C@H](NC(=O)[C@H](C)NC(=O)[C@H](C)NC(=O)[C@H](CC(N)=O)NC(=O)[C@H](C)NC(=O)[C@H](C)NC(=O)[C@H](C)NC(=O)[C@H](CCCCN)NC(=O)[C@@H](N)CCCCN)C(=O)N[C@@H](C)C(=O)N[C@@H](C)C(=O)N[C@@H](CC(N)=O)C(=O)N[C@@H](C)C(=O)N[C@@H](C)C(=O)N[C@@H](Cc1c[nH]c2ccccc12)C(=O)N[C@@H](C)C(=O)N[C@@H](C)C(=O)N[C@@H](CC(N)=O)C(=O)N[C@@H](C)C(=O)N[C@@H](C)C(=O)N[C@@H](C)C(=O)N[C@@H](CCCCN)C(=O)N[C@@H](CCCCN)C(=O)N[C@@H](CCCCN)C(=O)N[C@@H](CCCCN)C(N)=O [N] (H-KKAAANAAAAANAAWAANAAAKKKK-NH2; N-terminus assumed) | >64 µM | −0.16 | −3.79 | −0.21 | >64 µM | >64 µM | >64 µM |  |  |  | 
2 | C[C@H](NC(=O)CNC(=O)[C@H](C)NC(=O)[C@H](C)NC(=O)[C@H](C)NC(=O)[C@H](CCCCN)NC(=O)[C@@H](N)CCCCN)C(=O)N[C@@H](C)C(=O)N[C@@H](C)C(=O)N[C@@H](C)C(=O)N[C@@H](C)C(=O)NCC(=O)N[C@@H](C)C(=O)N[C@@H](C)C(=O)N[C@@H](Cc1c[nH]c2ccccc12)C(=O)N[C@@H](C)C(=O)N[C@@H](C)C(=O)NCC(=O)N[C@@H](C)C(=O)N[C@@H](C)C(=O)N[C@@H](C)C(=O)N[C@@H](CCCCN)C(=O)N[C@@H](CCCCN)C(=O)N[C@@H](CCCCN)C(=O)N[C@@H](CCCCN)C(N)=O [G] (H-KKAAAGAAAAAGAAWAAGAAAKKKK-NH2; N-terminus assumed) | >64 µM | −0.13 | −3.31 | −0.13 | >64 µM | >64 µM | >64 µM |  |  |  | 
3 | His: KKAAAXAAAAAXAAWAAXAAAKKKK-amide peptide with X-residue His (X = His; C-terminal amide) |  | −0.34 | −4.63 |  |  |  |  |  |  |  | 
4 | C[C@H](NC(=O)[C@H](C)NC(=O)[C@H](C)NC(=O)[C@@H](NC(=O)[C@H](C)NC(=O)[C@H](C)NC(=O)[C@H](C)NC(=O)[C@H](CCCCN)NC(=O)[C@@H](N)CCCCN)[C@@H](C)O)C(=O)N[C@@H](C)C(=O)N[C@@H](C)C(=O)N[C@H](C(=O)N[C@@H](C)C(=O)N[C@@H](C)C(=O)N[C@@H](Cc1c[nH]c2ccccc12)C(=O)N[C@@H](C)C(=O)N[C@@H](C)C(=O)N[C@H](C(=O)N[C@@H](C)C(=O)N[C@@H](C)C(=O)N[C@@H](C)C(=O)N[C@@H](CCCCN)C(=O)N[C@@H](CCCCN)C(=O)N[C@@H](CCCCN)C(=O)N[C@@H](CCCCN)C(N)=O)[C@@H](C)O)[C@@H](C)O [T] (H-KKAAATAAAAATAAWAATAAAKKKK-NH2; N-terminus assumed) | >64 µM | 0.22 | −1.08 | 0.22 | >64 µM | >64 µM | >64 µM |  |  |  | 
5 | N=C(N)NCCC[C@H](N)C(=O)O [Arg] |  | −0.05 | −2.77 |  |  |  |  |  |  |  | 
6 | K25: KKAAAXAAAAAXAAWAAXAAAKKKK-amide peptide with X = Lys, most hydrophilic peptide tested (KKAAAKAAAAAKAAWAAKAAAKKKK-NH2) [Peptide K25] |  | −0.40 | −5.00 |  |  |  |  |  |  |  | 
7 | Gln: KKAAAXAAAAAXAAWAAXAAAKKKK-amide peptide with X-residue Gln (KKAAAQAAAAAQAAWAAQAAAKKKK-NH2) |  | −0.04 | −2.75 |  |  |  |  |  |  |  | 
8 | CC(C)[C@H](NC(=O)[C@H](C)NC(=O)[C@H](C)NC(=O)[C@H](C)NC(=O)[C@H](CCCCN)NC(=O)[C@@H](N)CCCCN)C(=O)N[C@@H](C)C(=O)N[C@@H](C)C(=O)N[C@@H](C)C(=O)N[C@@H](C)C(=O)N[C@@H](C)C(=O)N[C@H](C(=O)N[C@@H](C)C(=O)N[C@@H](C)C(=O)N[C@@H](Cc1c[nH]c2ccccc12)C(=O)N[C@@H](C)C(=O)N[C@@H](C)C(=O)N[C@H](C(=O)N[C@@H](C)C(=O)N[C@@H](C)C(=O)N[C@@H](C)C(=O)N[C@@H](CCCCN)C(=O)N[C@@H](CCCCN)C(=O)N[C@@H](CCCCN)C(=O)N[C@@H](CCCCN)C(N)=O)C(C)C)C(C)C [V] (H-KKAAAVAAAAAVAAWAAVAAAKKKK-NH2; N-terminus assumed) | >32 µM | 0.87 | 3.02 | 0.87 |  |  |  | activity against gram-positive C. xerosis only | 0.5 µM (≈ 1.17 µg/mL) | >32 µM | >32 µM
9 | Glu: KKAAAXAAAAAXAAWAAXAAAKKKK-amide peptide with X-residue Glu (KKAAAEAAAAAEAAWAAEAAAKKKK-NH2) |  | 0.16 | −1.49 |  |  |  |  |  |  |  | 
10 | Pro: KKAAAXAAAAAXAAWAAXAAAKKKK-amide peptide with X-residue Pro (KKAAAPAAAAAPAAWAAPAAAKKKK-NH2) |  | −0.39 | −4.92 |  |  |  |  |  |  |  | 
11 | Asp: KKAAAXAAAAAXAAWAAXAAAKKKK-amide peptide with X-residue Asp (KKAAADAAAAADAAWAADAAAKKKK-NH2) |  | 0.00 | −2.49 |  |  |  |  |  |  |  | 
